Test results reported in patent US9409952B2, “Peptide-compound cyclization method” (Chugai Seiyaku Kabushiki Kaisha, priority 2011, dated 2016).
Starred links: 1 amine or outer side, 2 acyl side, 3 side chain; linkers in the order of their positions; H or OH if unused. Positions of bridges follow the written chain, without caps; N, C: chain ends. Non-standard residues stand in square brackets, D forms with d. Residues, ends and D or L forms follow the SMILES beside them. ξ: configuration not given here. *: point of attachment. NMeF = CN[C@@H](Cc1ccccc1)C(=O)O; NMeβAla = CN(CCC(=O)[*:2])[*:1]; NMeL = CN[C@@H](CC(C)C)C(=O)O; ξNMeF = CNC(Cc1ccccc1)C(=O)O; NMeV = CN[C@H](C(=O)O)C(C)C; NMeA = CN[C@@H](C)C(=O)O; Piperidide = C1CCN(*)CC1; dNMeA = CN[C@H](C)C(=O)O; Sar = CNCC(=O)O

Legend:
[1] = PAMPA (parallel artificial membrane permeability assay); format: in vitro ADME; conditions: PAMPA; membrane permeation rate (Pe); 50 mM MOPSO buffer pH 6.5 with 5.0% glycocholic acid, 37° C., 18 hours; read-out: iPAMPA Pe
Outline: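 Artificial membrane was 10% (w/v) egg lecithin plus 0.5% (w/v) cholesterol in dodecane on a PVDF filter. A 10 mM DMSO stock was added at 0.5% (v/v) to donor buffer (50 mM MOPSO, pH 6.5, 5.0% glycocholic acid). After 18 h at 37 °C, LC/MS or LC/UV gave donor and acceptor levels for Pe.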

[2] = Metabolic stability in human hepatic microsome; format: in vitro ADME; conditions: microsomes, pH 7.4; human hepatic microsome, NADPH(+); read-out: CL NADPH(+)

SMILES	Papp at 18 hours, 50 µM [1]	microsomal CLint at 1 uM [2]
CC[C@H](C)[C@@H]1NC(=O)[C@@H](C)N(C)C(=O)C[C@@H](C(=O)N(C)[C@@H](Cc2ccccc2)C(=O)N[C@@H](C)C(=O)N2CCCCC2)NC(=O)[C@H](Cc2ccccc2)N(C)C(=O)CN(C)C(=O)[C@H]([C@@H](C)O)NC(=O)[C@H](C)N(C)C(=O)[C@H](C(C)C)N(C)C(=O)[C@H](Cc2ccccc2)NC(=O)[C@H](CC(C)C)N(C)C(=O)[C@H](CC(C)C)N(C)C1=O [DP-183] ([dNMeA]I[NMeL][NMeL]F[NMeV][NMeA]T[Sar][NMeF]D[NMeF]A-Piperidide; lactam N-11)	29 ×10⁻⁶ cm/s	25 µL/min/mg
CC(C)C[C@@H]1NC(=O)[C@H]([C@@H](C)O)NC(=O)[C@@H]2CCCN2C(=O)CNC(=O)[C@H](CC(C)C)N(C)C(=O)[C@H](Cc2ccccc2)NC(=O)[C@H](CC(C)C)N(C)C(=O)[C@H](CC(C)C)N(C)C(=O)[C@H](Cc2ccccc2)NC(=O)CN(C)C(=O)C[C@@H](C(=O)N(C)C(Cc2ccccc2)C(=O)N[C@@H](C)C(=O)N2CCCCC2)NC1=O (some centres unmarked) [DP-185] ([Sar]F[NMeL][NMeL]F[NMeL]GPTLD[ξNMeF]A-Piperidide; lactam N-11)	46 ×10⁻⁶ cm/s	19 µL/min/mg
CC(C)C[C@H]1C(=O)N(C)[C@@H](C(C)C)C(=O)N[C@@H](C(C)C)C(=O)N[C@H](C(=O)N(C)[C@@H](Cc2ccccc2)C(=O)N[C@@H](C)C(=O)N2CCCCC2)CC(=O)N[C@@H](C)C(=O)N[C@@H](Cc2ccccc2)C(=O)N(C)[C@@H](CC(C)C)C(=O)N[C@@H]([C@@H](C)O)C(=O)N(C)[C@@H](Cc2ccccc2)C(=O)NCC(=O)N1C [DP-187] (AF[NMeL]T[NMeF]G[NMeL][NMeV]VD[NMeF]A-Piperidide; lactam N-10)	43 ×10⁻⁶ cm/s	22 µL/min/mg
CC(C)C[C@H]1C(=O)N(C)[C@@H](CC(C)C)C(=O)N[C@H](C(=O)N(C)[C@@H](Cc2ccccc2)C(=O)N[C@@H](C)C(=O)N2CCCCC2)CC(=O)N[C@@H](C)C(=O)N(C)[C@@H](C)C(=O)N(C)[C@@H](Cc2ccccc2)C(=O)N(C)[C@@H](CC(C)C)C(=O)N[C@@H]([C@@H](C)O)C(=O)N(C)CC(=O)N[C@@H](C(C)C)C(=O)N1C [DP-188] (A[NMeA][NMeF][NMeL]T[Sar]V[NMeL][NMeL]D[NMeF]A-Piperidide; lactam N-10)	28 ×10⁻⁶ cm/s	84 µL/min/mg
CC[C@H](C)[C@@H]1NC(=O)[C@H](Cc2ccccc2)N(C)C(=O)[C@H]([C@@H](C)O)NC(=O)[C@@H](C)NC(=O)C[C@@H](C(=O)N(C)[C@@H](Cc2ccccc2)C(=O)N[C@@H](C)C(=O)N2CCCCC2)NC(=O)[C@H](CC(C)C)N(C)C(=O)[C@H](CC(C)C)N(C)C(=O)[C@H](Cc2ccccc2)N(C)C(=O)[C@H](CC(C)C)N(C)C(=O)[C@H](C)N(C)C1=O [DP-189] ([dA]T[NMeF]I[NMeA][NMeL][NMeF][NMeL][NMeL]D[NMeF]A-Piperidide; lactam N-10)	1.4 ×10⁻⁶ cm/s	3 µL/min/mg
CC[C@H](C)[C@@H]1NC(=O)[C@H](C)N(C)C(=O)[C@H](CC(C)C)N(C)C(=O)[C@@H](C(C)C)NC(=O)C[C@@H](C(=O)N(C)[C@@H](Cc2ccccc2)C(=O)N[C@@H](C)C(=O)N2CCCCC2)NC(=O)[C@H]([C@@H](C)O)NC(=O)[C@H](CC(C)C)N(C)C(=O)[C@H](Cc2ccccc2)N(C)C(=O)[C@H](CC(C)C)N(C)C(=O)[C@H](Cc2ccccc2)N(C)C1=O [DP-190] ([dV][NMeL][NMeA]I[NMeF][NMeL][NMeF][NMeL]TD[NMeF]A-Piperidide; lactam N-10)	0.6 ×10⁻⁶ cm/s	3 µL/min/mg
CC(C)C[C@H]1C(=O)N(C)[C@@H](Cc2ccccc2)C(=O)N(C)[C@@H](C(C)C)C(=O)N[C@@H](Cc2ccccc2)C(=O)N[C@H](C(=O)N(C)[C@@H](Cc2ccccc2)C(=O)N[C@@H](C)C(=O)N2CCCCC2)CC(=O)N(C)[C@@H](C)C(=O)N[C@@H](C(C)C)C(=O)N(C)[C@@H](CC(C)C)C(=O)N[C@@H]([C@@H](C)O)C(=O)NCC(=O)N1C [DP-191] ([NMeA]V[NMeL]TG[NMeL][NMeF][NMeV]FD[NMeF]A-Piperidide; lactam N-10)	34 ×10⁻⁶ cm/s	46 µL/min/mg
CC(C)C[C@H]1C(=O)N[C@@H]([C@@H](C)O)C(=O)N(C)[C@@H](Cc2ccccc2)C(=O)N(C)[C@@H](CC(C)C)C(=O)NCC(=O)N(C)[C@@H](C(C)C)C(=O)N[C@@H](Cc2ccccc2)C(=O)N[C@H](C(=O)N(C)[C@@H](Cc2ccccc2)C(=O)N[C@@H](C)C(=O)N2CCCCC2)CC(=O)N(C)CCC(=O)N[C@@H](C(C)C)C(=O)N1C [DP-193] ([NMeβAla]V[NMeL]T[NMeF][NMeL]G[NMeV]FD[NMeF]A-Piperidide; lactam N-10)	53 ×10⁻⁶ cm/s	124 µL/min/mg
CC(C)C[C@H]1C(=O)N(C)[C@@H](CC(C)C)C(=O)N[C@H](C(=O)N(C)[C@@H](Cc2ccccc2)C(=O)N[C@@H](C)C(=O)N2CCCCC2)CC(=O)N(C)CCC(=O)N(C)[C@@H](C)C(=O)N(C)[C@@H](CC(C)C)C(=O)N[C@@H]([C@@H](C)O)C(=O)N(C)[C@@H](Cc2ccccc2)C(=O)N[C@@H](C(C)C)C(=O)N(C)CC(=O)N1C [DP-194] ([NMeβAla][NMeA][NMeL]T[NMeF]V[Sar][NMeL][NMeL]D[NMeF]A-Piperidide; lactam N-10)	22 ×10⁻⁶ cm/s	72 µL/min/mg
CC[C@H](C)[C@@H]1NC(=O)[C@H](C)N(C)C(=O)[C@H]([C@@H](C)O)NC(=O)[C@H](C)N(C)C(=O)[C@H](C(C)C)N(C)C(=O)[C@H](Cc2ccccc2)NC(=O)CN(C)C(=O)C[C@@H](C(=O)N(C)[C@@H](Cc2ccccc2)C(=O)N[C@@H](C)C(=O)N2CCCCC2)NC(=O)[C@H](C)N(C)C(=O)[C@H](CC(C)C)N(C)C1=O [DP-195] ([Sar]F[NMeV][NMeA]T[NMeA]I[NMeL][NMeA]D[NMeF]A-Piperidide; lactam N-10)	8 ×10⁻⁶ cm/s	52 µL/min/mg
CC(C)C[C@H]1C(=O)N[C@@H](C(C)C)C(=O)N[C@H](C(=O)N(C)[C@@H](Cc2ccccc2)C(=O)N[C@@H](C)C(=O)N2CCCCC2)CC(=O)N[C@@H](C)C(=O)N(C)[C@@H](Cc2ccccc2)C(=O)N(C)[C@@H](C)C(=O)N(C)[C@@H](CC(C)C)C(=O)N[C@@H]([C@@H](C)O)C(=O)N(C)CC(=O)N1C [DP-196] (A[NMeF][NMeA][NMeL]T[Sar][NMeL]VD[NMeF]A-Piperidide; lactam N-9)	29 ×10⁻⁶ cm/s	65 µL/min/mg
CC(C)C[C@H]1C(=O)N[C@H](C(=O)N(C)[C@@H](Cc2ccccc2)C(=O)N[C@@H](C)C(=O)N2CCCCC2)CC(=O)N[C@H](C)C(=O)N(C)[C@@H](Cc2ccccc2)C(=O)N(C)[C@@H](CC(C)C)C(=O)N[C@@H]([C@@H](C)O)C(=O)N(C)[C@@H](C)C(=O)N(C)[C@@H](CC(C)C)C(=O)N[C@@H](C(C)C)C(=O)N1C [DP-197] ([dA][NMeF][NMeL]T[NMeA][NMeL]V[NMeL]D[NMeF]A-Piperidide; lactam N-9)	27 ×10⁻⁶ cm/s	48 µL/min/mg
CC(C)C[C@H]1C(=O)N[C@@H](C(C)C)C(=O)N[C@H](C(=O)N(C)[C@@H](Cc2ccccc2)C(=O)N[C@@H](C)C(=O)N2CCCCC2)CC(=O)N[C@H](C(C)C)C(=O)N(C)[C@@H](Cc2ccccc2)C(=O)N(C)[C@@H](C)C(=O)N(C)[C@@H](CC(C)C)C(=O)N[C@@H]([C@@H](C)O)C(=O)N(C)CC(=O)N1C [DP-198] ([dV][NMeF][NMeA][NMeL]T[Sar][NMeL]VD[NMeF]A-Piperidide; lactam N-9)	36 ×10⁻⁶ cm/s	34 µL/min/mg
